Broadly, the pEC50 is the negative decadic logarithm of the EC50, by convention in mol/L.

pEC50: −log10 of the molar value.

The record followed here is US20250066328A1, “PARP7 INHIBITORS” (Gilead Sciences, Inc., priority 2023, published 2025).

This assay deals with STAT1 (phosphorylated at Tyr701) in NCI-H1373 cells. The assay can be described thus: Phospho-STAT1 (Tyr701) LANCE Ultra TR-FRET detection assay in NCI-H1373 cells. The class given is cell-based. The settings on record: Homo sapiens, NCI-H1373, 48 h, 48 hours incubation, induction of pSTAT1, normalized to 10 uM positive control and DMSO, 4-parameter fit, read-out: NH1373 pSTAT1 EC50. Here is the method: Phospho-STAT1 (Tyr701 LANCE Ultra TR-FRET Detection Assay
LANCE Ultra phospho-STAT1 (Tyr701) kits are designed for the detection of phosphorylated STAT1 in cell lysates using a simple, homogeneous LANCE Ultra sandwich assay (Cat. #TRF4028M). This assay is intended for assessing compound induction of endogenous levels of cellular STAT1 (phosphorylated at Tyr701) in NCI-H1373 cells. The NCI-H1373 cells are cultured in RPMI 1640 media containing 10% heat inactivated FBS, GlutaMAX, 1% Penicillin-Streptomycin. An Echo acoustic liquid handler is used to transfer 60 nanoliters of compound dilutions using the Echo Qualified, 384-well polypropylene microplate clear flat bottom source plates into a Greiner (#781080) cell culture microplate. NCI-H1373 cells are seeded into these compound-spotted culture plates at 30,000 cells/well in a 60 uL volume in growth media. The plates are incubated in a 5% CO2 humidified incubator at 37° C. for 48 hours. […] Briefly, […] of supplemented lysis buffer is added to each well and allowed to shake for 1 hour at 400 rpm. Next, 5 ul of remixed antibody solutions (vol/vol) prepared in detection buffer are added to each well and allowed to incubate at room temperature overnight. After spinning the plate down at 300 rpm for 1 min, the plate is read on an EnVision plate reader set up for Eu^3+ Cryptate and fluorescence emission is measured at two different wavelengths (665 nm and 620 nm). The HTRF ratio is then calculated ([…]) for each well to determine the amount of pSTAT1 in the cell lysate, and the data is then normalized to 10 uM (S)-5-((1-(3-oxo-3-(4-(5-(trifluoromethyl)pyrimidin-2-yl)piperazin-1-yl)propoxy)propan-2-yl)amino)-4-(trifluoromethyl)pyridazin-3(2H)-one positive and DMSO negative controls. The values were then plotted as a function of compound concentration and a 4-parameter fit was applied to derive the EC50 values.
On the technique in general: TR-FRET usually uses a lanthanide donor and a delayed reading to cut background.
As to `C[C@@H](C[C@@H](F)Cn1cc(F)c2cc(-c3ncc(C(F)(F)F)cn3)c(F)cc2c1=O)Nc1cn[nH]c(=O)c1C(F)(F)F` [Example 30], the negative logarithm of the EC50 (pEC50) is 8.81.
In the case of `C[C@@H](C[C@@H](F)Cn1ccc2cc(-c3ncc(C(F)(F)F)cn3)c(F)c(F)c2c1=O)Nc1cn[nH]c(=O)c1C(F)(F)F` [Example 32], the negative-log EC50 (pEC50) was 9.04.
The value for `CC(C)(O)c1cnc(-c2cc3ccn(CCCC(COC(F)F)Oc4cn[nH]c(=O)c4C(F)(F)F)c(=O)c3cc2F)nc1` (stereo not drawn) [Example 33, 2-(5-(difluoromethoxy)-4-((6-oxo-5-(trifluoromethyl)-1,6-dihydropyridazin-4-yl)oxy)pentyl)-7-fluoro-6-(5-(2-hydroxypropan-2-yl)pyrimidin-2-yl)isoquinolin-1(2H)-one] was 7.63.
To `C[C@@H](CC(F)Cn1cnc2cc(-c3ncc(C(F)(F)F)cn3)c(F)cc2c1=O)Oc1cn[nH]c(=O)c1C(F)(F)F` (stereo partly drawn) [Example 36] belongs 7.97; to `C[C@@H](CC(F)Cn1ccc2cc(-c3ncc(C(C)(C)O)cn3)c(F)cc2c1=O)Oc1cn[nH]c(=O)c1C(F)(F)F` (stereo partly drawn) [Example 37], 8.39.
`C[C@@H](CC(F)Cn1cnc2cc(-c3ncc(C(C)(C)O)cn3)c(F)cc2c1=O)Oc1cn[nH]c(=O)c1C(F)(F)F` (stereo partly drawn) [Example 38]: the pEC50 was 7.37.
As for `C[C@@H](C[C@@H](F)Cn1cnc2cc(-c3ncc(C(F)(F)F)cn3)c(F)cc2c1=O)Oc1cn[nH]c(=O)c1C(F)(F)F` [Example 39], the pEC50 was 8.83.
To `COc1cnc(-c2cc3ccn(C[C@H](F)C[C@H](C)Oc4cn[nH]c(=O)c4C(F)(F)F)c(=O)c3cc2F)nc1N` [Example 40] belongs 7.83.
To `C[C@@H](C[C@@H](F)Cn1ccc2cc(-c3ncc(S(C)(=O)=O)cn3)c(F)cc2c1=O)Oc1cn[nH]c(=O)c1C(F)(F)F` [Example 41] belongs 6.40; to `C[C@@H](C[C@@H](F)Cn1ccc2cc(-c3ncc(C(F)F)c(N)n3)c(F)c(F)c2c1=O)Oc1cn[nH]c(=O)c1C(F)(F)F` [Example 42], 9.08.
Turning to `COc1cnc(-c2cc3ccn(C[C@H](F)C[C@H](C)Oc4cn[nH]c(=O)c4C(F)(F)F)c(=O)c3c(F)c2F)nc1` [Example 44], the pEC50 was 9.43.
Turning to `COc1cnc(-c2cc3ccn(C[C@H](F)C[C@H](C)Oc4cn[nH]c(=O)c4C(F)(F)F)c(=O)c3cc2F)nc1` [Example 45], the pEC50 is 9.00.
To `C[C@@H](C[C@@H](F)Cn1ccc2cc(-c3ncc(C(C)(F)F)cn3)c(F)c(F)c2c1=O)Oc1cn[nH]c(=O)c1C(F)(F)F` [Example 46] belongs 9.18; to `C[C@@H](C[C@@H](F)Cn1ccc2cc(-c3ncc(C(F)(F)F)cn3)c(F)c(F)c2c1=O)Oc1cn[nH]c(=O)c1C(F)(F)F` [Example 47], 9.09; to `C[C@@H](C[C@@H](F)Cn1ccc2cc(-c3ncc(C(F)F)cn3)c(F)cc2c1=O)Oc1cn[nH]c(=O)c1C(F)(F)F` [Example 48], 8.98.
The value for `C[C@@H](C[C@@H](F)Cn1ccc2cc(-c3ncc(C(F)F)cn3)c(F)c(F)c2c1=O)Oc1cn[nH]c(=O)c1C(F)(F)F` [Example 50] was 9.34; that for `C[C@@H](C[C@@H](F)Cn1cc(F)c2cc(-c3ncc(C(F)F)cn3)c(F)cc2c1=O)Oc1cn[nH]c(=O)c1C(F)(F)F` [Example 52] was 7.17; that for `COc1cnc(-c2cc3c(F)cn(C[C@H](F)C[C@H](C)Oc4cn[nH]c(=O)c4C(F)(F)F)c(=O)c3cc2F)nc1` [Example 53] was 6.69.
To `C[C@@H](C[C@@H](F)Cn1cc(F)c2cc(-c3ncc(C(F)F)c(N)n3)c(F)cc2c1=O)Oc1cn[nH]c(=O)c1C(F)(F)F` [Example 54] belongs 7.62.
For `C[C@@H](C[C@@H](F)Cn1cc(F)c2cc(-c3ncc(C(F)(F)F)cn3)c(F)cc2c1=O)Oc1cn[nH]c(=O)c1C(F)(F)F` [Example 55], the pEC50 is 6.87.
With `C[C@@H](C[C@H](F)Cn1cnc2cc(-c3ncc(C(F)(F)F)cn3)c(F)cc2c1=O)Oc1cn[nH]c(=O)c1C(F)(F)F` [Example 58], the pEC50 was 7.45.
The value for `COc1cnc(-c2cc3ccn(C[C@@H](F)C[C@H](C)Oc4cn[nH]c(=O)c4C(F)(F)F)c(=O)c3cc2F)nc1N` [Example 59] was 8.92; that for `C[C@@H](C[C@H](F)Cn1ccc2cc(-c3ncc(S(C)(=O)=O)cn3)c(F)cc2c1=O)Oc1cn[nH]c(=O)c1C(F)(F)F` [Example 60] was 7.99.
The value for `C[C@@H](C[C@H](F)Cn1cc(F)c2cc(-c3ncc(C(F)F)cn3)c(F)cc2c1=O)Oc1cn[nH]c(=O)c1C(F)(F)F` [Example 62] was 8.77; that for `COc1cnc(-c2cc3c(F)cn(C[C@@H](F)C[C@H](C)Oc4cn[nH]c(=O)c4C(F)(F)F)c(=O)c3cc2F)nc1` [Example 63] was 8.69; that for `C[C@@H](C[C@H](F)Cn1cc(F)c2cc(-c3ncc(C(F)F)c(N)n3)c(F)cc2c1=O)Oc1cn[nH]c(=O)c1C(F)(F)F` [Example 64] was 9.38.
The value for `C[C@@H](C[C@H](F)Cn1cc(F)c2cc(-c3ncc(C(F)(F)F)cn3)c(F)cc2c1=O)Oc1cn[nH]c(=O)c1C(F)(F)F` [Example 65] was 8.55.
Regarding `C[C@@H](C[C@H](F)Cn1cc(F)c2cc(-c3ncc(C(C)(C)O)cn3)c(F)cc2c1=O)Oc1cn[nH]c(=O)c1C(F)(F)F` [Example 66], the negative-log EC50 (pEC50) was 7.04.
To `COc1cnc(-c2cc3ncn(C[C@@H](F)C[C@H](C)Oc4cn[nH]c(=O)c4C(F)(F)F)c(=O)c3cc2F)nc1` [Example 67] belongs 8.46; to `C[C@@H](C[C@@H](F)Cn1cc(Br)c2cc(-c3ncc(C(C)(C)O)cn3)c(F)cc2c1=O)Oc1cn[nH]c(=O)c1C(F)(F)F` [Example 68, 4-bromo-7-fluoro-2-((2R,4S)-2-fluoro-4-((6-oxo-5-(trifluoromethyl)-1,6-dihydropyridazin-4-yl)oxy)pentyl)-6-(5-(2-hydroxypropan-2-yl)pyrimidin-2-yl)isoquinolin-1(2H)-one], 8.43.
As to `C[C@@H](C[C@@H](F)Cn1cnc2cc(-c3ncc(C(F)F)c(N)n3)c(F)cc2c1=O)Nc1cn[nH]c(=O)c1C(F)(F)F` [Example 69], the pEC50 is 7.72.
To `C[C@@H](C[C@@H](F)Cn1cnc2cc(-c3ncc(C(F)F)cn3)c(F)cc2c1=O)Nc1cn[nH]c(=O)c1C(F)(F)F` [Example 70] belongs 8.48; to `C[C@@H](C[C@@H](F)Cn1cnc2cc(-c3ncc(C(F)(F)F)cn3)c(F)cc2c1=O)Nc1cn[nH]c(=O)c1C(F)(F)F` [Example 71], 8.66.
With `C[C@@H](C[C@@H](F)Cn1ccc2cc(-c3cc[nH]n3)c(F)cc2c1=O)Nc1cn[nH]c(=O)c1C(F)(F)F` [Example 73], the pEC50 is 6.87.
Regarding `C[C@@H](C[C@@H](F)Cn1ccc2cc(-c3ccccn3)c(F)cc2c1=O)Nc1cn[nH]c(=O)c1C(F)(F)F` [Example 74], the pEC50 was 8.18.
The value for `C[C@@H](C[C@@H](F)Cn1ccc2cc(-c3ncc(C(F)(F)F)cc3F)c(F)cc2c1=O)Nc1cn[nH]c(=O)c1C(F)(F)F` [Example 75] was 8.35.
For the compound `C[C@@H](C[C@@H](F)Cn1ccc2cc(-c3ccc(C(F)(F)F)cn3)c(F)cc2c1=O)Nc1cn[nH]c(=O)c1C(F)(F)F` [Example 76], the pEC50 is 8.59.
To `C[C@@H](C[C@@H](F)Cn1ccc2cc(-c3ncc(OC(F)(F)F)cn3)c(F)cc2c1=O)Nc1cn[nH]c(=O)c1C(F)(F)F` [Example 77] belongs 8.60.
To `C[C@@H](C[C@@H](F)Cn1ccc2cc(-c3ncc(OCC#N)cn3)c(F)cc2c1=O)Nc1cn[nH]c(=O)c1C(F)(F)F` [Example 78] belongs 6.72; to `C[C@@H](C[C@@H](F)Cn1ccc2cc(-c3ncc(C(O)C(F)(F)F)cn3)c(F)cc2c1=O)Nc1cn[nH]c(=O)c1C(F)(F)F` (stereo partly drawn) [Example 79], 8.30.
To `C[C@@H](C[C@@H](F)Cn1ccc2cc(-c3ncc([C@@H](O)C(F)F)cn3)c(F)cc2c1=O)Nc1cn[nH]c(=O)c1C(F)(F)F` [Example 80] belongs 8.10; to `C[C@@H](C[C@@H](F)Cn1ccc2cc(-c3ncc([C@H](O)C(F)F)cn3)c(F)cc2c1=O)Nc1cn[nH]c(=O)c1C(F)(F)F` [Example 81], 8.23.
In the case of `C[C@@H](C[C@@H](F)Cn1ccc2cc(-c3ncc(OC(F)(F)CO)cn3)c(F)cc2c1=O)Nc1cn[nH]c(=O)c1C(F)(F)F` [Example 82], the pEC50 is 8.67.
To `C[C@@H](C[C@@H](F)Cn1ccc2cc(-c3ncc(C(C)(O)C(F)(F)F)cn3)c(F)cc2c1=O)Nc1cn[nH]c(=O)c1C(F)(F)F` (stereo partly drawn) [Example 84] belongs 8.55.
To `C[C@@H](C[C@@H](F)Cn1ccc2cc(-c3ncc(C(F)(F)CO)cn3)c(F)cc2c1=O)Nc1cn[nH]c(=O)c1C(F)(F)F` [Example 85] belongs 8.36.
